Test results reported in US20060247165A1, “Methods and compositions for encapsulation of cells” (priority 2005, published 2006).
Residues, ends and D or L forms follow the SMILES beside them. *: point of attachment. Butanoyl(4-pyren-1-yl) = O=C(CCCc1ccc2ccc3cccc4ccc1c2c34)*; Palmitoyl = CCCCCCCCCCCCCCCC(=O)*

What was measured:
injured spinal cord = assay: Stability of fluorescent peptide amphiphile gel in injured spinal cord; type: in vivo, mouse
Excerpt: Mouse spinal cord injuries, amphiphile injections and animal care. All animal care and surgical interventions were undertaken in strict accordance with the Public Health Service Policy on Humane Care and Use of Laboratory Animals, Guide for the Care and Use of Laboratory Animals (Institute of Laboratory Animal Resources, National Research Council, 1996). The Institutional Animal Care and Use Committee approved of all operative procedures. Female, adult 129 SvJ mice (10 weeks old; Jackson Labs, USA) were anesthetized using avertin intraperitoneally. A laminectomy was performed and the spinal cord was compressed dorsoventrally at T10 by the extradural application of a modified Kerr-Lougheed aneurysm clip for 1 min (FEJOTA mouse clip, University Health Network, Canada). The skin was sutured using AUTOCLIP (9 mm, Becton Dickinson). Post-operatively, animals were kept under a heat-lamp to maintain body temperature. […]
Peptide amphiphile solution or vehicle was injected 24 hours after the spinal cord injury using borosilicate glass capillary micropipettes (Sutter Instruments) (OD: 100 μm). […] The micropipette was manually inserted to a depth of 750 μm measured from the dorsal surface of the cord and 2.5 μl of the diluted amphiphile solution or vehicle was injected at the rate of 2.5 μl/min. […]

spinal cord = conditions: rat, in vivo
Method: Spinal Cord Injection Procedure. Rats were anesthetized using 45 mg/kg Pentobarbital (NEMBUTAL). A laminectomy was performed to expose spinal segment T13 and a stereotaxic micromanipulator (Kopf Instruments) with a Hamilton syringe attached to a 32 gauge needle was used to inject 6 μl at 333 nl/sec of isoosmotic glucose (vehicle) or peptide amphiphile into the spinal cord at T10 at a depth of 1.5 mm. The needle was kept inside the site of injection for 2 minutes after each injection in order to allow the IKVAV-PA to gel without disturbance.

[1] = system: neural progenitor cells (NPCs); assay: Cell body area and neurite length of neurons differentiated from NPCs; type: cell-based, mouse; conditions: after 1 day
Method: (§1) Cell Culture and In Vitro Encapsulation in IKVAV-PA nano-networks. Neural progenitor cells (NPCs) were cultured as previously described (See, e.g., Zhu et al., J. Neurosci. Res. 59, 312 (2000)). Briefly, the cortices of E13 mouse embryos were dissected and plated on un-treated petri dishes in DMEM/F12 media supplemented with bFGF (10 ng/ml). After four days, mechanically and enzymatically dissociated NPCs and undissociated neurospheres (e.g., undissociated NPC aggregates) were plated onto appropriate substrates (e.g., encapsulated in IKVAV-peptide amphiphile (PA), EQS-PA, or alginate gels, or cultured on laminin, poly-D-lysine, or IKVAV peptide coated cover slips). In all cases this was taken as 0 days in vitro. […]
(§2) Immunocytochemistry. […] Cell imaging was done with a high resolution Cool Snap camera attached to a Nikon TE-2000 fluorescence microscope interfaced with a PC running MetaView imaging software, or an Axiocam camera attached to a Zeiss Axiovert 200 fluorescence microscope interfaced with a PC running AxioVision imaging software.
(§3) Cell Counts. Randomly selected fields of view were imaged for different experimental conditions and cells counted using ImageJ (Scion Corporation) morphometric analysis software. […]

[2] = system: neural progenitor cells (NPCs); assay: NPC differentiation on two-dimensional coated substrates; type: cell-based, mouse; conditions: for differentiation into neurons on 2D substrate: cells plated for 1 day
Method: Two-dimensional cultures. For IKVAV peptide experiments, the same 12 mm glass coverslips used for the three-dimensional experiments were soaked in ethanol to encourage hydrophilicity, then spin-coated with 50 μL of a 1 mg/mL IKVAV peptide solution. For IKVAV-PA experiments, the coverslips were coated with PDL (e.g., to encourage adsorption) and subsequently with IKVAV-PA solution. In both cases, the cover slips were allowed to dry overnight and then washed three times with distilled water to remove weakly adherent material before the addition of cell suspension.
NPC differentiation on a two dimensional (2D) substrate coated with IKVAV-PA nanofibers was investigated.

[3] = system: neural progenitor cells (NPCs); assay: Immunocytochemistry of NPC differentiation (β-tubulin III neurons, GFAP astrocytes) in 3D scaffolds; type: cell-based, mouse
Method: as §1, §2, §3

Q: `CC[C@H](C)[C@H](NC(=O)[C@H](CCC(=O)O)NC(=O)[C@H](C)NC(=O)[C@H](C)NC(=O)[C@H](C)NC(=O)[C@H](CC(C)C)NC(=O)[C@H](CO)NC(=O)[C@H](CC(C)C)NC(=O)[C@H](CO)NC(=O)CCCc1ccc2ccc3cccc4ccc1c2c34)C(=O)N[C@@H](CCCCN)C(=O)N[C@H](C(=O)N[C@@H](C)C(=O)N[C@H](C(=O)O)C(C)C)C(C)C` [PA2] ({Butanoyl(4-pyren-1-yl)}-SLSLAAAEIKVAV-OH) was tested. Which “presence of gel in injured cord” value (injured spinal cord; 5 weeks after injection, 1% solution in isotonic glucose) did it give?
A: The value was “remnants could still be seen”.

Q: What about the “lifetime of the nanofiber scaffold in vivo” value (injured spinal cord; mouse, in vivo) of the same molecule?
A: Its value is “on the order of weeks”.

Q: `CCCCCCCCCCCCCCCC(=O)N[C@@H](C)C(=O)N[C@@H](C)C(=O)N[C@@H](C)C(=O)N[C@@H](C)C(=O)NCC(=O)NCC(=O)NCC(=O)N[C@@H](CCC(=O)O)C(=O)N[C@H](C(=O)N[C@@H](CCCCN)C(=O)N[C@H](C(=O)N[C@@H](C)C(=O)N[C@H](C(=O)O)C(C)C)C(C)C)[C@@H](C)CC` [IKVAV-PA] (Palmitoyl-AAAAGGGEIKVAV-OH) was tested. Which “toxic effects after spinal cord injection” value (spinal cord) did it give?
A: The value was “no toxic effects”.

Q: For laminin, which neurite development [1] is on record?
A: Its neurite development is “had not developed neurites”.

Q: What about the “differentiation into neurons on 2D substrate” value [2] of the same molecule?
A: Its value is “did not lead to the significant neuron differentiation”.

Q: What about the “GFAP expression relative to cells cultured on nanofiber networks” value ([3]; coated substrates) of the same molecule?
A: Its value is “significantly greater”.

Q: Which “expression of β-tubulin III and/or GFAP on 2D coated substrate” value [2] does the source give for “isolucine-lysine-valine-alanine-valine [IKVAV peptide]” here?
A: Its value is “nearly nonquantifiable amounts”.

Q: What about the “differentiation into neurons on 2D substrate” value [2] of the same molecule?
A: The value was “did not lead to the significant neuron differentiation”.

Q: And the “neuron differentiation on titration into EQS-PA scaffolds” value ([3]; increasing amounts of soluble peptide, 1 day)?
A: The value was “failed to induce the extent of neuron differentiation”.
